Measured values reported in patent US8440614B2, “Polymer microspheres/nanospheres and encapsulating therapeutic proteins therein” (priority 2000, dated 2013).

Experiments:
[1] = tested on: chronic diabetic BB/W or male rats; assay: In vivo release of insulin: glucose concentration in diabetic rats; details: for Effect on glucose levels (in words): bled 0.5 to 16 hrs after treatment
Description: A preliminary study with SCCNC polymer nanoencapsulated insulin was conducted in diabetic rats. Three groups of four chronic diabetic BB/W or male rats were used to evaluate efficacy on nanoencapsulated insulin (MS-29). One group [A] was given 2 ml of the test formulation (MS-29) using the standard gavage method. The second group [B] received oral non-encapsulated insulin, administered by gavage at the concentration based on the animals' day of diabetes onset. A third group [C] received injected insulin (PZI, Eli Lilly) therapy at the dose consistent with their day of onset of diabetes. The animals were bled prior to treatment and at 0.5, 1, 2, 4, 8, and 16 hrs after treatment.

[2] = Antigenicity by sandwich-type capture ELISA after SCCNC treatment; format: binding
Description: Experiments were performed to encapsulate tetanus toxoid (TT) and diphtheria toxoid (DT) vaccine antigens in 50:50 PLGA polymer microspheres formed by SCCNC carbon dioxide and propane. In these tests, DT and TT were each separately treated with supercritical carbon dioxide with 10% (v/v) cosolvent ethanol, and near-critical propane in the presence of PLGA. The pressure and temperature were around 3,000 psig and 30-35° C. respectively. The protein and antigenicity activities were performed by micro BCA assay and a sandwich-type capture ELISA [Gupta, R. K., Siber, G. R., Alonso, M. J. and Langer, R., in Modern Approaches To New Vaccines Including Prevention of AIDS. Ed. by Ginsberg, H. S., Brown, F., Chanock, R. M. and Lerner, R. A. Cold Spring Harbor Laboratory, Press, 1993] assay.

[3] = aqueous protein; cited from earlier work
[4] = treated with SCCNC carbon dioxide/ethanol mixtures

Substance	Percent Change in Glucose Concentration ([1]; 0.5 hr post-treatment)	Percent Change in Glucose Concentration ([1]; 1 hr post-treatment) [%]	Percent Change in Glucose Concentration ([1]; 2 hr post-treatment) [%]	Percent Change in Glucose Concentration ([1]; 4 hr post-treatment)	Percent Change in Glucose Concentration ([1]; 8 hr post-treatment)	Percent Change in Glucose Concentration ([1]; 16 hr post-treatment)	Effect on glucose levels (in words) [1]	Antigenicity after treatment (in words) [2, 4]	Antigenicity after treatment (in words) ([2]; treated with near-critical propane)	pH levels at which the toxoid will denature [3]	ELISA (Lf/mL), antigenicity ([2]; toxoid in PLGA microspheres formed by different SCCNC, around 3,000 psig, 30-35° C.) [Lf/mL]
Injected Insulin: injected insulin (PZI, Eli Lilly), positive control	−47.4%	−62.7	−71.8	−37.9%	−48.5%	−37.6%	statistical decrease in glucose levels at all times measured post treatment	–	–	–	–
diphtheria toxoid	–	–	–	–	–	–	–	lost most of their antigenicity	did little damage	below 5.0	–
4: Tetanus toxoid, Control [Sample 4]	–	–	–	–	–	–	–	–	–	–	9.0
tetanus toxoid: tetanus toxoid (TT) vaccine antigen	–	–	–	–	–	–	–	lost most of their antigenicity	–	below 5.0	–
Oral Insulin: oral non-encapsulated insulin, administered by gavage	+2.9%	−4.6	−24.4	+2.8%	+7.5%	+47.3%	only showed a statistical decrease in the level of glucose at one time point, 2 hours	–	–	–	–
